Drawing on PubChem BioAssay (NCI), this text covers GI50 and TGI for twelve molecules.

Test systems include NCI-H23 lung; NCI-H460 lung; UACC-257 melanoma; RXF 393 renal; NCI-H226 lung; HS 578T breast; NCI/ADR-RES ovarian; HCC-2998 colon.
Assay in all cases: growth of human tumour cells (NCI), 48 h

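Following 48 hours of exposure in 96-well plates, responses at five concentrations were used to interpolate endpoints linearly. At the GI50, growth is halved. Definition used: TGI = concentration required for complete inhibition of growth.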

Turning to `CCOC(=O)C1=C(c2ccccc2)N(c2ccc(OC)cc2)[C@]2(C#N)C(O)=C(Cl)C(Cl)=C(O)[C@]12C#N`, the GI50 in the experiment with NCI-H23 lung was 17.7 µM; in the experiment on NCI-H460 lung, 35 µM; in the experiment with UACC-257 melanoma it was 22.2 µM; in the experiment with RXF 393 renal, 17.4 µM; with NCI-H226 lung, 20.2 µM; with HS 578T breast it was 43.5 µM. In addition, in the experiment with NCI/ADR-RES ovarian, the GI50 is 15.6 µM. Also, the TGI is 33.1 µM in the experiment on NCI-H23 lung; more than 100 µM in the experiment with NCI-H460 lung; 52.2 µM in the experiment with UACC-257 melanoma; 31.5 µM in the experiment with RXF 393 renal; 42.5 µM with NCI-H226 lung; more than 100 µM in the experiment with HS 578T breast. Also, in the experiment with NCI/ADR-RES ovarian, the TGI was 36.5 µM.
With `NC(=O)NCCSC1CCCCC1O` (stereo unspecified), the TGI in the experiment on NCI-H23 lung, in the experiment on NCI-H460 lung, in the experiment on UACC-257 melanoma, with RXF 393 renal, in the experiment with NCI-H226 lung and in the experiment with HS 578T breast was more than 100 µM each time. In the experiment with NCI/ADR-RES ovarian, this molecule displayed a TGI of more than 100 µM.
With `CCN1CCC(CC(=O)Nc2n[nH]c3nc(-c4cccs4)c(Br)cc23)CC1`, the GI50 in the experiment with NCI-H23 lung is 20.1 µM; with NCI-H460 lung, 10.1 µM; in the experiment on UACC-257 melanoma, 5.58 µM; in the experiment on RXF 393 renal, 5.51 µM; in the experiment with NCI-H226 lung, 12.1 µM; in the experiment with HCC-2998 colon, 12 µM. The GI50 in the experiment on HS 578T breast was 12.3 µM; in the experiment on NCI/ADR-RES ovarian, more than 20.7 µM. Moreover, the TGI with NCI-H23 lung is more than 25 µM; in the experiment on NCI-H460 lung, more than 25 µM; with UACC-257 melanoma, 10.8 µM; in the experiment with RXF 393 renal, 16.8 µM; in the experiment with NCI-H226 lung it was more than 25 µM; in the experiment with HCC-2998 colon it was more than 25 µM. In addition, the TGI with HS 578T breast and in the experiment with NCI/ADR-RES ovarian was more than 25 µM throughout.
With `O=C(/C=C\c1ccc2ccccc2n1)c1cc(Cl)ccc1O`, the GI50 in the experiment with NCI-H23 lung was 5.9 µM; in the experiment with NCI-H460 lung it was 16 µM; with UACC-257 melanoma, 24.3 µM; with RXF 393 renal, 2.3 µM; in the experiment on NCI-H226 lung it was 9.41 µM; with HCC-2998 colon it was 14.6 µM. Besides, the GI50 in the experiment on HS 578T breast was 16.2 µM; with NCI/ADR-RES ovarian, 2.6 µM. Moreover, the TGI was 19.7 µM in the experiment on NCI-H23 lung; 42.6 µM with NCI-H460 lung; 63.2 µM in the experiment with UACC-257 melanoma; 6.36 µM in the experiment on RXF 393 renal; 38.2 µM in the experiment with NCI-H226 lung; 28.3 µM in the experiment on HCC-2998 colon. Moreover, the TGI with HS 578T breast worked out at 62.6 µM; with NCI/ADR-RES ovarian it was 8.04 µM.
`COc1cc2c(cc1OC)-c1c(c3ccc([N+](=O)[O-])cc3c(=O)n1CCCN)C2=O`: the GI50 in the experiment on NCI-H23 lung was 0.548 µM; in the experiment with NCI-H460 lung it was 0.403 µM; in the experiment with UACC-257 melanoma, 6.79 µM; with RXF 393 renal it was 1.21 µM; in the experiment on NCI-H226 lung it was 3.61 µM; with HCC-2998 colon it was 0.0818 µM. Besides, the GI50 with HS 578T breast was 9.12 µM; in the experiment with NCI/ADR-RES ovarian, 0.342 µM. Moreover, the TGI in the experiment on NCI-H23 lung came out at 1.55 µM; in the experiment with NCI-H460 lung, 8.97 µM; with UACC-257 melanoma, 14.6 µM; with RXF 393 renal, 4.12 µM; in the experiment on NCI-H226 lung it was 12.1 µM; in the experiment with HCC-2998 colon, 0.759 µM. Moreover, the TGI is 20.2 µM with HS 578T breast and 2.87 µM with NCI/ADR-RES ovarian.
For `COc1ccc(C(=O)CC(c2ccc(OC)c(OC)c2)c2c(O)c3ccccc3oc2=O)cc1OC` (stereo unspecified), the TGI in the experiment with NCI-H23 lung, in the experiment on NCI-H460 lung, in the experiment on UACC-257 melanoma, in the experiment on RXF 393 renal, with NCI-H226 lung and in the experiment on HCC-2998 colon was more than 100 µM in each case. The TGI in the experiment on HS 578T breast and in the experiment with NCI/ADR-RES ovarian was more than 100 µM in each case.
`Cc1ccc2[nH]c(C(=O)NN3C(=O)C(C)SC34CCCCC4C)c(-c3ccccc3)c2c1` (stereo unspecified): the GI50 with NCI-H23 lung is 24.7 µM; with NCI-H460 lung, 22 µM; with UACC-257 melanoma, 20.4 µM; with RXF 393 renal, 0.415 µM; with NCI-H226 lung, 17.4 µM; in the experiment on HCC-2998 colon, 19.5 µM. The GI50 in the experiment with HS 578T breast is 14.4 µM. Moreover, the TGI in the experiment with NCI-H23 lung was 53.5 µM; in the experiment with NCI-H460 lung, 58.5 µM; in the experiment on UACC-257 melanoma it was 37.6 µM; in the experiment with RXF 393 renal, 21.1 µM; with NCI-H226 lung it was 34.2 µM; with HCC-2998 colon, 35.5 µM. The TGI in the experiment with HS 578T breast amounted to 43.2 µM.
With `CN(C)S(=O)(=O)c1ccc(Nc2ccc(O)c3c2C(=O)c2c([N+](=O)[O-])ccc(O)c2C3=O)cc1`, the TGI with NCI-H23 lung, with NCI-H460 lung, with UACC-257 melanoma, in the experiment on RXF 393 renal, in the experiment on HS 578T breast and in the experiment with NCI/ADR-RES ovarian was more than 100 µM each time.
Turning to `CO/N=C(/COc1c(-c2ccccc2)oc2ccccc2c1=O)c1ccc(F)cc1`, the GI50 was more than 100 µM in the experiment on NCI-H23 lung; more than 100 µM with UACC-257 melanoma; 76.6 µM with RXF 393 renal; more than 100 µM in the experiment on NCI-H226 lung; more than 100 µM in the experiment on HCC-2998 colon; 30.2 µM in the experiment on HS 578T breast. Besides, in the experiment with NCI/ADR-RES ovarian, the GI50 was 86.4 µM. The TGI with NCI-H23 lung, in the experiment with UACC-257 melanoma, with RXF 393 renal, in the experiment on NCI-H226 lung, in the experiment on HCC-2998 colon and in the experiment on HS 578T breast was more than 100 µM in each case. In the experiment with NCI/ADR-RES ovarian, this molecule registered a TGI of more than 100 µM.
With `N/C(=N\c1nc2ccccc2s1)NC(=O)Nc1cccc2ccccc12`, the GI50 with NCI-H23 lung was 0.462 µM; in the experiment with UACC-257 melanoma, more than 100 µM; in the experiment on RXF 393 renal, 0.2 µM; in the experiment with NCI-H226 lung, 0.6 µM; in the experiment with HCC-2998 colon, 0.741 µM; with HS 578T breast it was 0.302 µM. Besides, in the experiment with NCI/ADR-RES ovarian, the GI50 is 0.144 µM. Besides, the TGI is more than 28.4 µM in the experiment on NCI-H23 lung; more than 100 µM in the experiment with UACC-257 melanoma; 0.898 µM with RXF 393 renal; more than 68.9 µM in the experiment on NCI-H226 lung; more than 100 µM in the experiment with HCC-2998 colon; 5.41 µM with HS 578T breast. Moreover, the TGI with NCI/ADR-RES ovarian was found to be 1.34 µM.
For the molecule `c1cncc(CNc2ncn[nH]2)c1`, the TGI in the experiment on NCI-H23 lung, in the experiment on NCI-H460 lung, in the experiment with UACC-257 melanoma, in the experiment on RXF 393 renal, in the experiment with NCI-H226 lung and in the experiment on HS 578T breast was more than 100 µM each time. The molecule also came in with a TGI in the experiment on NCI/ADR-RES ovarian of more than 100 µM.
Regarding `Cc1cn2c(=O)n(c1=O)Cc1ccccc1C2`, the GI50 with NCI-H23 lung is more than 100 µM; with NCI-H460 lung, more than 100 µM; with UACC-257 melanoma, more than 100 µM; in the experiment on RXF 393 renal, 19.5 µM; in the experiment on HCC-2998 colon, more than 100 µM; with HS 578T breast, 8.97 µM. The GI50 in the experiment with NCI/ADR-RES ovarian was more than 100 µM. For the same molecule, the TGI in the experiment with NCI-H23 lung, in the experiment on NCI-H460 lung, with UACC-257 melanoma, in the experiment with RXF 393 renal, in the experiment on HCC-2998 colon and with HS 578T breast was more than 100 µM throughout. In addition, in the experiment with NCI/ADR-RES ovarian, the TGI is more than 100 µM.
